Laboratory results as given in patent publication US10039747B2, “Tetrahydrocyclopentapyrrole derivatives and a method for preparing the same” (Daewoong Pharmaceutical Co., Ltd., priority 2013, dated 2018).

Columns and labels:
H+/K+-ATPase = target: T1, H+/K+-ATPase (Sus scrofa, UniProt P19156); assay: Inhibition of proton pump (H+/K+-ATPase) activity in hog gastric vesicles; format: biochemical; details: K+ specific H+/K+-ATPase activity, pH 7.4, 37° C. for 40 minutes, malachite green
T1 construct: reaction buffer solution (60 mmol/l Tris-HCl buffer solution, pH 7.4) containing hog gastric vesicle; from tissue; host or cells: hog stomach (gastric vesicles, by centrifugation after Rabon et al. 1988)
T1 sequence (P19156 2-1034 limits assumed): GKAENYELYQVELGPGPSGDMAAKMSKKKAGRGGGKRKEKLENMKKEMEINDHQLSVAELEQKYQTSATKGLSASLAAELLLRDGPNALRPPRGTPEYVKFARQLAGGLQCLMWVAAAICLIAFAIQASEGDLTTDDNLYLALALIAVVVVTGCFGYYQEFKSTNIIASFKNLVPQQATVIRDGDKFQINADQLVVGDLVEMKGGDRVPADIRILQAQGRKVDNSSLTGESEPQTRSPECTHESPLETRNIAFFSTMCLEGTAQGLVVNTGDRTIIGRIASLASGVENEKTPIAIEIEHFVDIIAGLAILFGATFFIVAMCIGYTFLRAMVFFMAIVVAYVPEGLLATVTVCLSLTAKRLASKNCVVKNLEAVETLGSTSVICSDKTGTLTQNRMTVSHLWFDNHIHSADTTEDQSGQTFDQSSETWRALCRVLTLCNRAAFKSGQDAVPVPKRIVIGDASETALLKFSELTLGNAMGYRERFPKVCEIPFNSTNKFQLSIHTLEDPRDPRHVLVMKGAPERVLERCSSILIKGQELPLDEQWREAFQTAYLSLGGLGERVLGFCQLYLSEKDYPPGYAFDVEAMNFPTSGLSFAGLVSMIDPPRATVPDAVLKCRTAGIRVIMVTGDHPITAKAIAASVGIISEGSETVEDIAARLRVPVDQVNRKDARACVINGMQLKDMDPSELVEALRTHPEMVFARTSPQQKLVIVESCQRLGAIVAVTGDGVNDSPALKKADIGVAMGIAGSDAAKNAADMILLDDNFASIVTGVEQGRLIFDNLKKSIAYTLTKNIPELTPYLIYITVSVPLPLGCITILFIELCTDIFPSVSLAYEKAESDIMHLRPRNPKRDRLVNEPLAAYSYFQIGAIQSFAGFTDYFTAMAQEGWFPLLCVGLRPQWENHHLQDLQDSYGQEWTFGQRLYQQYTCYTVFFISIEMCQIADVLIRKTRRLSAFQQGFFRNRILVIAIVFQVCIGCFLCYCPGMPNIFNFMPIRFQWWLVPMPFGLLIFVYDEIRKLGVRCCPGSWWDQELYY
T1 sequence (P18434 whole entry partner): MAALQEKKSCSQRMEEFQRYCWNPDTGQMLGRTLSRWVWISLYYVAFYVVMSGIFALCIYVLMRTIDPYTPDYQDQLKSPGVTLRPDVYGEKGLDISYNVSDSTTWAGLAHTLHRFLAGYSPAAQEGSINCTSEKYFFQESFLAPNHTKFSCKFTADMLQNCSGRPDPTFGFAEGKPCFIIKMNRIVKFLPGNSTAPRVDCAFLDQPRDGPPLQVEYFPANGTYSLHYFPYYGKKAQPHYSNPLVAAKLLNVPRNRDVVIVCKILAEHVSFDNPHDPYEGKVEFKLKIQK
In short: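 Hog gastric vesicles in 60 mmol/l Tris-HCl pH 7.4 with compound, started with ATP, 40 min at 37° C. Pi read by malachite green at 570 nm; K+-specific activity taken as difference between +K+ and −K+ activity. IC50 from % inhibition by 4-parameter logistic fit.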

[1] = tested on: basal gastric acid secretion in pylorus-ligated rat; assay: Inhibition of basal gastric acid secretion in pylorus-ligated rat (Shay's rat model); format: in vivo; details: total acid output, male SD rats, 3 mg/kg into the caudal vein, 5 hours after pylorus ligation
Procedure: 3) Effect of Inhibiting Basal Gastric Acid Secretion in Pylorus-Ligated Rat
The measurement of effect of inhibiting basal gastric acid secretion by the compound of the present invention was conducted according to shay's rat model (Shay, H., et al., 1945, gastroenterology, 5, p 43-61). Male Sprague Dawley (SD) rats (body weight 180-220 g) were divided into X groups (n=5), and fasted while feeding only water for 18 hours. Under isoflurane anesthesia, incision of abdominal cavity of rat was made to ligate pylorus, and, immediately after the ligation, to the control groups, only an aqueous solution of 10% ethanol, 20% polyethyleneglycol (PEG) 400 and 10% Cremophor was administered into the caudal vein, and to the other groups, a test compound suspended in an aqueous solution of 10% ethanol, 20% polyethyleneglycol 400, 10% Cremophor was administered into the caudal vein at a dose of 3 mg/kg/2 ml. […] The amount and the pH of the obtained gastric juice were measured, the acidity of gastric juice was measured with 0.1 N-NaOH volume (ueq/ml) required for automatic titration of gastric juice to pH 7.0, and total acid output was calculated by multiplying the acidity of gastric juice and the amount of gastric juice. % Inhibition activity of test compound=(total acid secretion of control group−total acid secretion of the group treated with test compound)/total acid secretion of control group×100

Row | IC50 (H+/K+-ATPase) [nM] | Structure (SMILES) | % inhibition activity [1] [%]
1 | 340 | CNC1CCc2c1cn(S(=O)(=O)c1cccc(Cl)c1)c2-c1ccccc1F (centres unmarked) [Example 1] | 92
2 | 310 | CNC1CCc2c1cn(S(=O)(=O)c1cccc(F)c1)c2-c1ccc(F)cc1F (centres unmarked) [Example 113, 1-(2,4-difluorophenyl)-2-((3-fluorophenyl)sulfonyl)-N-methyl-2,4,5,6-tetrahydrocyclopenta[c]pyrrol-4-amine] | 52
3 | 3270 | CNC1CCc2c1cn(S(=O)(=O)c1ccccc1OC)c2-c1ccccc1F (centres unmarked) [Example 46, 1-(2-fluorophenyl)-2-((2-methoxyphenyl)sulfonyl)-N-methyl-2,4,5,6-tetrahydrocyclopenta[c]pyrrol-4-amine] | 
4 | 8500 | CNC1CC(C)(C)c2c1cn(S(=O)(=O)c1cccnc1)c2-c1ccccc1F (centres unmarked) [Example 105, 1-(2-fluorophenyl)-N,6,6-trimethyl-2-(pyridin-3-ylsulfonyl)-2,4,5,6-tetrahydrocyclopenta[c]pyrrol-4-amine] | 
5 | 690 | CNC1CCc2c1cn(S(=O)(=O)c1cccnc1)c2-c1ccc(Cl)cc1F (centres unmarked) [Example 91, 1-(4-chloro-2-fluorophenyl)-N-methyl-2-(pyridin-3-ylsulfonyl)-2,4,5,6-tetrahydrocyclopenta[c]pyrrol-4-amine] | 
6 | 1500 | CNC1CCCc2c1cn(S(=O)(=O)c1cccc(C)c1)c2-c1ccccc1F (centres unmarked) [Example 121, 1-(2-fluorophenyl)-N-methyl-2-(m-tolylsulfonyl)-4,5,6,7-tetrahydro-2H-isoindole-4-amine] | 
7 | 470 | CNC1CCc2c1cn(S(=O)(=O)c1cccc(F)c1)c2-c1ccc(C)cc1F (centres unmarked) [Example 47, 1-(2-fluoro-4-methylphenyl)-2-((3-fluorophenyl)sulfonyl)-N-methyl-2,4,5,6-tetrahydrocyclopenta[c]pyrrol-4-amine] | 
8 | 7100 | CN(C)C1CCCc2c1cn(S(=O)(=O)c1cccc(Cl)c1)c2-c1ccccc1F (centres unmarked) [Example 138, 2-((3-chlorophenyl)sulfonyl)-1-(2-fluorophenyl)-N,N-dimethyl-4,5,6,7-tetrahydro-2H-isoindole-4-amine] | 
9 | 1790 | CCNC1CCc2c1cn(S(=O)(=O)c1cccnc1)c2-c1ccccc1F (centres unmarked) [Example 103, N-ethyl-1-(2-fluorophenyl)-2-(pyridin-3-ylsulfonyl)-2,4,5,6-tetrahydrocyclopenta[c]pyrrol-4-amine] | 
10 | 840 | CNC1CCc2c1cn(S(=O)(=O)c1cccc(Cl)c1Cl)c2-c1ccccc1F (centres unmarked) [Example 64, 2-((2,3-dichlorophenyl)sulfonyl)-1-(2-fluorophenyl)-N-methyl-2,4,5,6-tetrahydrocyclopenta[c]pyrrol-4-amine] | 

The next lines start with the compound.

Row | Structure (SMILES) | IC50 (H+/K+-ATPase) [nM] | % inhibition activity [1] [%]
11 | CNC1CCc2c1cn(S(=O)(=O)c1ccccc1Cl)c2-c1ccc(F)cc1C (centres unmarked) [Example 49, 2-((2-chlorophenyl)sulfonyl)-1-(4-fluoro-2-methylphenyl)-N-methyl-2,4,5,6-tetrahydrocyclopenta[c]pyrrol-4-amine] | 2170 | 
12 | Cc1oc(=O)oc1COC(=O)N(C)C1CCc2c1cn(S(=O)(=O)c1cccc(F)c1)c2-c1ccc(F)cc1F (centres unmarked) [Example 116, (5-methyl-2-oxo-1,3-dioxol-4-yl)methyl (1-(2,4-difluorophenyl)-2-((3-fluorophenyl)sulfonyl)-2,4,5,6-tetrahydrocyclopenta[c]pyrrol-4-yl)(methyl)carbamate] | 26200 | 
13 | CNC1CCc2c1cn(S(=O)(=O)c1ccc(C(F)(F)F)cc1Cl)c2-c1ccccc1F (centres unmarked) [Example 69, 2-((2-chloro-4-(trifluoromethyl)phenyl)sulfonyl)-1-(2-fluorophenyl)-N-methyl-2,4,5,6-tetrahydrocyclopenta[c]pyrrol-4-amine] | 1620 | 
14 | CNC1CCc2c1cn(S(=O)(=O)c1cc(C(F)(F)F)ccc1Cl)c2-c1ccccc1F (centres unmarked) [Example 74, 2-((2-chloro-5-(trifluoromethyl)phenyl)sulfonyl)-1-(2-fluorophenyl)-N-methyl-2,4,5,6-tetrahydrocyclopenta[c]pyrrol-4-amine] | 520 | 
15 | CNC1CCc2c1cn(Cc1ccccc1)c2-c1ccccc1F (centres unmarked) [Example 109, 2-benzyl-1-(2-fluorophenyl)-N-methyl-2,4,5,6-tetrahydrocyclopenta[c]pyrrol-4-amine] | 6240 | 
16 | Cc1oc(=O)oc1CN(C)C1CCc2c1cn(S(=O)(=O)c1cccc(Cl)c1)c2-c1ccccc1F (centres unmarked) [Example 119, 4-(((2-((3-chlorophenyl)sulfonyl)-1-(2-fluorophenyl)-2,4,5,6-tetrahydrocyclopenta[c]pyrrol-4-yl)(methyl)amino)methyl)-5-methyl-1,3-dioxol-2-one] | 2160 | 
17 | CNC1CCc2c1cn(S(=O)(=O)c1cc(Cl)ccc1Cl)c2-c1ccc(C)cc1F (centres unmarked) [Example 72, 2-((2,5-dichlorophenyl)sulfonyl)-1-(2-fluoro-4-methylphenyl)-N-methyl-2,4,5,6-tetrahydrocyclopenta[c]pyrrol-4-amine] | 480 | 
18 | CNC1CCc2c1cn(Cc1cccc(Cl)c1)c2-c1ccccc1F (centres unmarked) [Example 107, 2-(3-chlorobenzyl)-1-(2-fluorophenyl)-N-methyl-2,4,5,6-tetrahydrocyclopenta[c]pyrrol-4-amine] | 2860 | 
